Laboratory results published in PMC12007624 (Open Forum Infectious Diseases, 2025).
Each block holds one molecule with its values, some of them ahead of it.

Legend:
[1] = Pharmacokinetics of immunosuppressants before and 2 weeks after ART switch; assay type: in vivo, human; conditions: for AUC % Change / Cmax % Change / Cmin % Change: after vs before ART switch, P > .05
[2] = Pharmacokinetics of RAL before and DTG after switch to DTG-based ART; assay type: in vivo, human; conditions: SOT recipients receiving immunosuppressants
[3] = system: renal organic cation transporter OCT2; conditions: renal tubules; interferes with creatinine clearance; cited from earlier work
[4] = system: multidrug and toxin extrusion transporter MATE1; conditions: renal tubules; cited from earlier work

Cmin ([1]; After ART switch (2 weeks on DTG-based ART), blood, median (IQR)): 4.4 (4.3, 8.5) ng/mL | Tmax ([1]; After ART switch (2 weeks on DTG-based ART), median (IQR)): 2 (1, 2) h | Cmin ([1]; Before ART switch (RAL-based ART), blood, median (IQR)): 6.2 (5.2, 8.9) ng/mL | AUC % Change [1]: −9% | Cmax % Change [1]: 14% | Cmin % Change [1]: −29% | Cmax % Change ([1]; listed as tacrolimus): +14%
Structure (SMILES): C=CC[C@@H]1/C=C(\C)C[C@H](C)C[C@H](OC)[C@H]2O[C@@](O)(C(=O)C(=O)N3CCCC[C@H]3C(=O)O[C@H](/C(C)=C/[C@@H]3CC[C@@H](O)[C@H](OC)C3)[C@H](C)[C@@H](O)CC1=O)[C@H](C)C[C@@H]2OC [Tacrolimus, tacrolimus]

Structure (SMILES): C[C@@H]1CCO[C@H]2Cn3cc(C(=O)NCc4ccc(F)cc4F)c(=O)c(O)c3C(=O)N12 [DTG, Dolutegravir]
plasma levels versus normal range [2]: in the normal range | effect on OCT2 [3]: inhibits | effect on MATE1 [4]: potentially

plasma levels versus normal range [2]: in the normal range
Structure (SMILES): Cc1nnc(C(=O)NC(C)(C)c2nc(C(=O)NCc3ccc(F)cc3)c(O)c(=O)n2C)o1 [RAL, Raltegravir]

Cmin ([1]; After ART switch (2 weeks on DTG-based ART), plasma, median (IQR)): 2.9 (1.7, 4) µg/mL | Cmin ([1]; Before ART switch (RAL-based ART), plasma, median (IQR)): 1.9 (1.5, 2.5) µg/mL | AUC % Change [1]: 16% | Cmax % Change [1]: 63% | Cmin % Change [1]: 53% | AUC % Change ([1]; listed as mycophenolic acid): +16% | Cmax % Change ([1]; listed as mycophenolic acid): +63% | Cmin % Change ([1]; listed as mycophenolic acid): +53%
Structure (SMILES): COc1c(C)c2c(c(O)c1C/C=C(\C)CCC(=O)O)C(=O)OC2 [Mycophenolic Acid, mycophenolic acid]
